Legend:
[1] = target: T1, purified recombinant human PAOh1/SMO (Homo sapiens, UniProt Q9NWM0); assay: Oxidase activity of purified recombinant PAOh1/SMO, luminol chemiluminescence; format: biochemical; conditions: for ability to serve as substrate (oxidation by purified PAOh1/SMO): 250 μM of compound; for inhibition of PAOh1/SMO activity, increasing concentrations: 250 μM spermine
T1 construct: A 1702 bp fragment of the PAOh1cDNA was produced by PCR; His tag (pET15b) (N); made in house; host or cells: Escherichia coli BL21(DE3)
T1 sequence (Q9NWM0 whole entry, the tested form may be a part): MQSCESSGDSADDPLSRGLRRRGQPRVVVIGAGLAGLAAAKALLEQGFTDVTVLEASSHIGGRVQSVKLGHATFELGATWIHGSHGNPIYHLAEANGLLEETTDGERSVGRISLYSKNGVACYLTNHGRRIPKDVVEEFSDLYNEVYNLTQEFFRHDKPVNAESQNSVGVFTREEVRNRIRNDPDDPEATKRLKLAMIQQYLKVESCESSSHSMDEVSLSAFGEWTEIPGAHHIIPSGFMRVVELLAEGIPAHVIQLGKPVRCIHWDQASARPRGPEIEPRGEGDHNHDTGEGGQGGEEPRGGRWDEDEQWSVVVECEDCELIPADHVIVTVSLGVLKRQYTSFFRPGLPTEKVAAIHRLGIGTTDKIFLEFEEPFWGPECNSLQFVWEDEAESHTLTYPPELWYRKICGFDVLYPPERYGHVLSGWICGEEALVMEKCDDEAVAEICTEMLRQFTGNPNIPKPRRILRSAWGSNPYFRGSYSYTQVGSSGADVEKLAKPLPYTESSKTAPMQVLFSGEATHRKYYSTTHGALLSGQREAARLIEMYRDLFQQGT
Protocol: Expression and Purification of PAOh1/SMO. The pET15b/PAOh1/SMO plasmid was used to transform the BL21(DE3) strain of Escherichia coli (Novagen) and transformed cells were selected on LB agar with 50 μg/ml ampicillin. The expression of PAOh1/SMO protein was induced in LB medium by the addition of 1 mM IPTG for 3 h at 37 ° C. Cell lysates were prepared under denaturing conditions with 8M urea and PAOh1/SMO protein was purified from the lysate by Ni-NTA resin according to the manufacturer's protocol (Qiagen, Valencia, Calif.). The resulting denatured protein was renatured in buffers containing decreasing concentrations of urea (5M urea, 4 h; 2.5M urea, 4 h; 1M urea, 12 h; and 0M urea, 12 h) and 50 mM Tris-HCl, pH 7.5, 250 mM NaCl, 0.1 mM EDTA, 1 mM DTT, and 0.2 μM flavin adenine dinucleotide (FAD).
Determination of PAO enzyme activity. PAO activity of the purified PAOh1/SMO was assayed using a modi.cation of the chemiluminesence analysis reported by Fernandez et al. and Rogers, et al.. Briefly, luminol-dependent chemiluminescence was determined using a Monolight 3010 luminometer with two reagent injectors. Luminol was prepared as a 100 mM stock solution in DMSO and diluted to 100 μM with H2O, immediately prior to use. Purified PAOh1/SMO was assayed in a 100 mM glycine buffer, pH 8.0, 5 ηmol luminol, 20 μg horseradish peroxidase, and the polyamine substrate as indicated. All reagents with the exception of the polyamine substrate were combined and incubated for 2 min at 37 ° C., then the tube was transferred to the luminometer, substrate was added, and the resulting chemiluminescence was integrated over 20 s. The integral values are calibrated against standards containing known concentrations of H2O2 and the activities are expressed as pmols H2O2/mg protein/min. Where indicated, inhibitors were added at the specified concentrations prior to the addition of substrate. Km and Vmax values for the purified enzyme with the indicated substrate were estimated using Lineweaver-Burk transformation of the Michaelis-Menten kinetic equation.

[2] = tested on: PAOh1/SMO; assay: PAOh1/SMO activity in lysates of NCI A549 cells after analogue treatment; format: cell-based, human; conditions: for induction of PAOh1/SMO activity: NCI A549, 24 h exposure to 10 μM of each analogue; for substrate of the inducible PAOh1/SMO activity: lysates of NCI A549 treated with 10 μM BENSpm or CPENSpm 24 h, 250 μM substrate
Protocol: (§1) Cell Culture and Analysis of Growth Inhibition of Human Lung Cancer Cell Lines The non-small-cell cancer lines NCI A549 (adenocarcinoma), NCI H157 (squamous), NCI H727 (carcinoid), NCI H125 (adenocarcinoma) and U1752 (squamous), and the small-cell lung carcinoma lines NCI H82 and NCI H889 were cultured as we have previously described. Cells were treated for the times and with the concentrations of specific agents as indicated in the Results. For cell growth analysis in the presence of the PAOh1/SMO inhibitor MDL 72,527, the MTS dye reduction assay CellTiter 96 system from Promega was used according to the supplier's protocol. In these experiments, NCI A549 cells were seeded at 5×10^3 cells/well in a 96-well microtiter plate and treated for 96 h with 10 μM of the indicated analogue in the presence or absence of 250 μM MDL 72,527.
(§2) Total cellular RNA was extracted from the lung cancer cell lines using Trizol reagent (Invitrogen) according to the manufacturer's protocol. For Northern blotting, total RNA (20 lg) was separated on a denaturing 1.5% agarose gel containing 6% formaldehyde and transferred to Zetaprobe membrane (Bio-Rad). Random primer- labeled PAOh1 cDNA was used as probe to estimate PAOh1/SMO expression. Blots were stripped and reprobed with an 18S ribosomal cDNA to provide a loading control. Analysis of polyamine content, SSAT and PAOh1/SMO activity. Intracellular polyamine concentrations were determined using the precolumn dansylation labeling, reverse-phase high-pressure liquid chromatography method as described by Kabra et al. using 1,7-diaminoheptane as an internal standard. Polyamine concentrations are reported as nanomoles per milligram protein for each sample, where lysate protein content was measured by the method of Bradford. SSAT activity of cellular extracts was measured as previously described. […] The PAOh1/SMO assays were performed in the presence of 1.0 mM pargyline and 0.1 mM semicarbizide as inhibitors of monoamine oxidase (MAO) and diamine oxidase (DAO), respectively.

[3] = target: T2, PAOh4 (Homo sapiens, UniProt Q9NWM0); assay: Kinetics of TnT-produced PAOh4 isoenzyme; format: biochemical; conditions: named compound as substrate
T2 construct: For PAO-isoform 4, the cDNA is 1825 bp long; the open reading frame encodes 532 amino acids; made in house; host or cells: Wheat Germ Extract-TnT coupled system (Promega), template pPAOh4 (pcDNA3.1), cDNA from HEK-293 mRNA
T2 sequence (Q9NWM0 1-532 isoform Q9NWM0-4): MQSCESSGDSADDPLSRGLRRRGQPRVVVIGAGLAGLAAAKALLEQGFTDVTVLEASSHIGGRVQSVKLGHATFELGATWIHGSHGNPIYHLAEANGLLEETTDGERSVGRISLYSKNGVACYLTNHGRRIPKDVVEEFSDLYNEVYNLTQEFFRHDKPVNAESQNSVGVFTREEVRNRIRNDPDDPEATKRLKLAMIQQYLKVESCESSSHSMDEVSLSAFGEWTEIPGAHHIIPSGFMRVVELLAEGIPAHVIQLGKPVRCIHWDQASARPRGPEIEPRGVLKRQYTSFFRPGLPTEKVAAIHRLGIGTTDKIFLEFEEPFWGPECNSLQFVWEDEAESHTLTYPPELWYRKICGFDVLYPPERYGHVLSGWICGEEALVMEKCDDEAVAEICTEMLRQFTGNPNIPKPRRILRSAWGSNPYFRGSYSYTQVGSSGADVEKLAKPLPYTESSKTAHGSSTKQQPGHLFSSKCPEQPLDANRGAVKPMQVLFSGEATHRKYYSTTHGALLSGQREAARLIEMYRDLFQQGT
Protocol: For PAO splice variant protein analysis, each cDNA construct, as well as the pcDNA3.1 empty vector, was linearized using NdeI. In vitro transcription and translation was subsequently performed using the Wheat Germ Extract-TnT coupled system from Promega (Madison, Wis., U.S.A.) according to the manufacturer's protocol. Reactions were performed in parallel, with one aliquot containing [^35S]methionine in the amino acid mixture for subsequent separation and quantification by SDS-PAGE. […] After drying, bands were visualized and quantified using phosphorimage analysis with Image Quant software from Molecular Dynamics (Sunnyvale, Calif., U.S.A.).
TnT products from the reactions using unlabelled substrates were used for PAO enzyme analysis by the method of Suzuki et al. Specifically, 10 μl of the TnT reaction mixture was used for each 600 μl of PAO assay sample (in duplicate, and in the presence of monoamine and diamine oxidase inhibitors, as previously described). Background oxidase activity in the Wheat Germ Extract-TnT reactions was determined for each substrate using the empty pcDNA3.1 vector. These values (always<0.05 pmol/min) were subtracted from the oxidase activity measured in TnT lysates produced from vectors containing the individual splice variants. To ensure linearity of the reaction (thereby determining the optimal incubation time after substrate addition), time courses were performed for each potential isoenzyme in the presence of 1 mM Spm (Sigma, St. Louis, Mo., U.S.A.).
Apparent kinetics were examined for each isoenzyme using TnT reaction products as described above with increasing concentrations of Spm, Spd (Sigma) or N^1-acetylspermine (N^1-AcSpm; Fluka). Apparent Km and Vmax values were determined using the Lineweaver-Burk transformation of the Michaelis-Menten equation. Values were adjusted for TnT reaction efficiency by SDS-PAGE quantfication of a [^35S]methionine-labelled aliquot of the TnT reaction mixture normalized for methionine content.

[4] = tested on: NCI A549 cells; assay: Intracellular polyamine and analogue content of NCI A549 cells (HPLC); format: cell-based, human; conditions: NCI A549, 10 μM, 24 h
Source text: as §2

[5] = tested on: SSAT; assay: SSAT activity of NCI A549 cellular extracts; format: cell-based, human; conditions: NCI A549, 10 μM, 24 h; untreated 5 ± 0.1
Source text: as §2

[6] = tested on: NCI A549 cells; assay: MTS cell growth analysis of NCI A549 cells with or without MDL 72,527; format: cell-based, human
Protocol: as §1

[7] = target: T3, human PAOh1 (Homo sapiens, UniProt Q9NWM0); assay: PAO activity of in vitro TnT (wheat germ) produced PAOh1, fluorescent H2O2 assay; format: biochemical; conditions: 0.25 mM inhibitor, 250 μM spermine as substrate
T3 construct: made in house; host or cells: TnT-coupled wheat germ extract (Promega), template pPAOh1 (pcDNA3.1)
T3 sequence (Q9NWM0 whole entry): as the sequence (Q9NWM0 whole entry, the tested form may be a part) above
Protocol: In Vitro Transcription and Translation. In vitro transcription and translation reactions were performed with the TnT-coupled wheat germ extract system. Parallel reactions were prepared by adding an unlabeled amino acid mixture to one reaction and a [^35S]methionine containing amino acid mixture to the other, according to the supplied protocol. Vector pcDNA3.1 and pPAOh1 were linearized by SalI restriction and served as the templates. The labeled translation reactions products were separated by 10% SDS-PAGE, and radioactivity on the labeled PAO band was determined by Phosphor image analysis using Image Quant software (Molecular Dynamics, Sunnyvale, Calif.).
Determination of PAO Enzyme Activity. The cultured H157 cells with or without treatment of 10 μM N^1, N″-bis(ethyl)norspermine (BENSpm) were homogenized with a Dounce tissue homogenizer in ice-cold 0.083 M sodium borate buffer (pH 9.0). […] The enzyme activity was stopped by the addition of 2.0 ml of 0.1 M NaOH solution. The fluorescence intensity was measured with excitation at 323 nm and emission at 426 nm. […] Protein content of the cellular homogenate was determined using the Bio-Rad protein assay kit (Bio-Rad). […] For determination of PAO activity in the product of the unlabeled TnT reaction, 10 μl of TnT reaction were used in the place of the homogenate. […]

[8] = named compound as substrate, Lineweaver-Burk

SMILES | inhibition of PAOh1/SMO activity, increasing concentrations [1] | Km of PAOh4 [3] | ability to serve as substrate (oxidation by purified PAOh1/SMO) [1] | induction of PAOh1/SMO activity [2] | substrate of the inducible PAOh1/SMO activity [2] | other results
CC(=O)NCCCNCCCCNCCCN [N^1-acetylspermine] | – | nanomolar range | less efficient | – | not significantly active | Km [1, 8]: 51 µM; Vmax of purified PAOh1/SMO [1, 8]: 0.251 μmol/mg protein/min
CCNCCCNCCCNCCCNCC1CC1 [CPENSpm, N^1-ethyl-N^11-(cyclopropyl) methyl-4,8,diazaundecane] | – | – | none of the analogues examined were found to be oxidized | significant induction | – | Polyamine: Putrescine ([4]; untreated 2.1 ± 0.7): <0.05 nmol/mg protein; Polyamine: Spermine ([4]; untreated 9.9 ± 1.2): 2.4 ± 0.4 nmol/mg protein; Polyamine: Spermidine ([4]; untreated 26.9 ± 1.2): 5.5 ± 0.2 nmol/mg protein; SSAT activity [5]: 1190 ± 287.9 pmol N^1-acetylspermidine/mg p; sensitivity of cell growth to analogue in the presence of the PAOh1/SMO inhibitor ([6]; NCI A549, 96 h, 10 μM analogue with 250 μM MDL 72,527): clear decrease in sensitivity; PAOh1/SMO activity ([2]; NCI A549, 10 μM, 24 h, untreated 6,390 ± 2,070): 14,300 ± 3,700 pmol H2O2/mg/h; dose-dependence of PAOh1/SMO activity ([2]; NCI A549, increasing concentrations, 24 h): continued to increase at concentrations up to 50 μM
NCCCCNCCCN [spermidine] | – | nanomolar range | No PAOh1/SMO activity was observed | – | not significantly active | –
C=C=CCNCCCCNCC=C=C [MDL 72,527, N^1,N^4-bis(2,3-butadienyl)-1,4-butanediamine] | – | – | – | – | – | IC50 [1]: ~10 µM; inhibition at 250 µM ([1]; read-out: inhibition of oxidation of spermine): > 95%; effect of the inhibitor alone on growth ([6]; NCI A549, 250 μM MDL 72,527): did not adversely affect the growth; inhibition of the human PAOh1 protein product [7]: effective in inhibiting; basal oxidase activity in the presence of inhibitor ([2]; NCI A549 basal activity (4184 without inhibitor), 250 μM MDL 72,527): 4055 pmol/mg per hour; effect on the basal levels of oxidase activity ([2]; NCI A549 lysate, 250 μM MDL 72,527): did not significantly reduce; inhibition of the PAOh1/SMO activity induced by the analogues ([2]; NCI A549 lysate, 250 μM MDL 72,527 in the assay): significantly inhibited; part of the basal level of oxidase activity that is inhibited ([2]; basal (untreated) lung cancer cell lysate): less than 10%
CCNCCCNCCCNCCCNCC1CCCCCC1 [CHENSpm, N^1-ethyl-N^11-(cycloheptyl) methyl-4,8,diazaundecane] | not found to profoundly inhibit | – | none of the analogues examined were found to be oxidized | significant induction | – | inhibition of PAOh1/SMO activity ([1]; at 10 μM): < 20%
CCNCCCNCCCNCCCNC[C@@H](C)CC [IPENSpm, (S)-N1-(2-methyl-1-butyl)-N^11-ethyl-4,8,diazaundecane] | – | – | none of the analogues examined were found to be oxidized | significant induction | – | –

Now from value to molecule, other results behind:

inhibition of PAOh1/SMO activity, increasing concentrations [1] | Km of PAOh4 [3] | SMILES | ability to serve as substrate (oxidation by purified PAOh1/SMO) [1] | induction of PAOh1/SMO activity [2] | substrate of the inducible PAOh1/SMO activity [2] | other results
potent inhibitors | – | CCNCCCCNCCCCNCCCCNCCCCNC/C=C\CNCCCCNCCCCNCCCCNCCCCNCC [SL-11150] | none of the analogues examined were found to be oxidized | did not induce | – | potency relative to MDL 72,527 [1]: 100 times
– | nanomolar range | NCCCNCCCCNCCCN [spermine] | efficiently oxidize | – | only spermine was a substrate | –
potent inhibitors | – | CCNCCCCNCCCCNCCCCNCCCCNC/C=C/CNCCCCNCCCCNCCCCNCCCCNCC [SL-11144] | none of the analogues examined were found to be oxidized | did not induce | – | potency relative to MDL 72,527 [1]: 100 times

From US20040229241A1, “Cloned mammalian polyamine oxidase” (priority 2001, published 2004)
